Test results taken from publication PMC10508264, “Exploring the antioxidant, antimicrobial, cytotoxic and biothermodynamic properties of novel morpholine derivative bioactive Mn(II), Co(II) and Ni(II) complexes – combined experimental and theoretical measurements towards DNA/BSA/SARS-CoV-2 3CL^Pro” (RSC Medicinal Chemistry, 2023).
Where two headings read alike, the source gives them in different places.

Columns and labels:
[1] = Nitric oxide scavenging assay; format: biochemical; conditions: 546 nm
Staphylococcus Aureus = test: Agar disc diffusion, strain F; format: cell-based; set-up: Inhibition%: concentration or dose not given beside the values; conditions: for Diameter of clear zone inhibition: control 6 mm
HepG2 = test: MTT cell viability assay, HepG2; format: cell-based, human; conditions: HepG2, 72 h of exposure
[2] = Shake flask n-octanol/deionized water partition (lipophilicity); format: physicochemical; conditions: for pKa: Henderson–Hasselbalch; for Concentration, aqueous layer: deionised water phase; for Concentration, organic layer: n-octanol phase
Procedure: The lipophilicity of all complexes and free ligands was evaluated by the flask-shaking method through n-octanol/deionized water phase partition.[49–51] The partition coefficients (log Po/w) and distribution coefficients (log Do/w) of all substances were also acquired from molar absorption coefficients, conductivity, and pH measurements.[52–54]
Lipophilicity is an imperative factor in anticancer and antimicrobial properties, particularly the necessity for a relevant hydrophobicity to assist the crossing of the cell membrane. This is also supported for the characterization of a drug because it has a fundamental impact on the pharmacokinetic profile and is associated with its capacity to enter tumor cells through passive diffusion.[139] […] This is probably due to the fact that hydrophobic effects play a crucial role not only in the intramolecular interactions that take place between a medication and its target site, but also in the distribution of a drug within a biosystem, its interaction with rival binding sites, passage across and into membranes, and its interaction with metabolizing enzymes. However, the “accurate” model system for hydrophobic effects is octanol/water. Hydrophobicity (lipophilicity) is associated with the partition coefficient (log P), which is a measure of the ability of the solute to go into two immiscible phases (polar and non-polar environments). Also, it refers to the concentration of unionized species of compounds. Generally, the ability of a drug to penetrate with high permeability into lipid membranes depends on the solubility and partition coefficient of the drug. Furthermore, the partition coefficient is extensively employed in the discovery of new medications, chromatography, physical chemistry, environmental science and other fields. Since lipophilicity is one of the major parameters affecting important biological processes, it can influence drug intake via the absorption, distribution, metabolism, excretion, and toxicity (ADMET) characteristics of the substances.[140] Additionally, the ability of a molecule or drug to passively diffuse across cell membranes has been linked to its lipophilicity, which is a measure of the solubility of the substance in aqueous and lipid-like environments.[141] In general, chemotherapeutic medications often need to have certain solubility in the lipid phase in order to be absorbed by the biofilm. Meanwhile, the intracellular milieu is a water-soluble environment once the drug has entered the cell. The medicine must be water-soluble for it to have any anticancer effects. […] Conversely, the cytotoxic properties of a synthesized complex are not only associated with its DNA/protein binding affinity but may be also influenced by its lipophilicity. Additionally, molecules with higher lipophilicity have increased permeability into cell membranes, which determines a drug's cytotoxicity. […] However, more positive partition coefficient values (log P > 0) correspond to higher lipophilicity, and more negative values (log P < 0) correspond to higher hydrophilicity. Generally, log P is measured between −3 and +10; if […], the substance has an extremely hydrophilic character, and if log P > +10, the substance has an extremely hydrophobic character. In addition, the aromatic ligands get larger in size and become more hydrophobic. […] The present complexes (1–3) have higher values of log P and log D compared to the free ligand (Table 11). However, when log P > ±2, the drug will be harder to excrete from the body due to its high lipophilic character, which also creates toxicity due to accumulation. […] (Table 11). […] The observed results are also well correlated with cytotoxic properties. Moreover, in an equilibrium two-component system, the partition coefficient (log P) reflects the ratio of neutral solute concentrations in the organic and aqueous phases. As a result, log P expresses the inherent lipophilicity of a compound in the absence of dissociation or ionization. […]

A549 = test: MTT cell viability assay, A549; format: cell-based, human; conditions: A549, 72 h of exposure
NHDF = test: MTT cell viability assay, NHDF; format: cell-based, human; conditions: NHDF normal cells, 72 h of exposure
Procedure: Cellular viability or metabolic properties can be measured using the MTT assay, which is a powerful and consistent method for cytotoxic properties. […] As per the colorimetric approach, the IC50 values of all compounds were evaluated via the percentage of cell viability or inhibition of growth.[128] […] However, complexes (2) and (3) were exposed to similar cytotoxic potential as the others,[129] which induces apoptosis due to their ability to produce ROS more efficiently than the free ligand. […] The cytotoxic effectiveness is dependent upon the DNA binding modalities, the structure–activity relationship, the drug concentrations, and the incubation period exposure.[130] […] Coordination between the ligands and metal ions results in charge equilibration, which diminishes the polarity of the metal ions and also causes the ability of the test complexes to pass via the cell membrane lipid layer in accordance with Tweedy's chelation theory. Thus, it inhibits the synthesis of cell-wall/protein/nucleic acid. Additionally, the results of DNA binding tests using these complexes, including gel electrophoresis, UV-vis spectral titration, hydrodynamics, emission, and CV findings, were in good agreement with the findings of cytotoxicity.[131] Expressions eqn (44) and (45) were applied to measure the percentage of growth inhibition and cell viability (Table 10). In this case, complexes (2) and (3) have been proven to have greater biological efficiency than the others. Cytotoxicity depends on not only the hydrophilicity or lipophilicity and permeability, which only assist the crossing of the cell membrane but are not responsible for cell death, but also on several other factors, including the Lewis acid character, overall stability, solubility, conductivity, compatibility, length of the metal–ligand bond, overall charge, electron density, reduction potential, dipole moment, intermolecular hydrogen bonds, proton transfer equilibrium, and coordination environment. These significant elements might also contribute to the increased biological activity. Moreover, cobalt is also generally not considered to be a very toxic element, and its coordination complexes have fascinating redox and magnetic characteristics that fit them for a remarkable range of biological and medical uses. […] Moreover, it is possible to intelligently adjust these factors to successfully target a desired pathway or biomolecule. Designing such well-controlled and selective cobalt-based therapeutics may benefit from a mechanistic understanding of the varied bioactivities of cobalt complexes. Thus, knowing the mechanism of action can direct the advancement of prospective cobalt treatments to clinical trial.[133]
2.5. Assessment of in-vitro antimicrobial properties
bacteria and 7 days for fungal strains.

[3] = test system: Salmonella enterica serovar typhi; test: Agar disc diffusion, strain C; format: cell-based; conditions: for Diameter of clear zone inhibition: control 6 mm
[4] = Hydroxyl radical scavenging assay; format: biochemical; conditions: for % Inhibition, hydroxyl radical: 230 nm
[5] = n-octanol/deionised water, shake flask

Structure (SMILES)	% Inhibition, nitric oxide ([1]; 40 µM) [%]	% Inhibition, nitric oxide ([1]; 80 µM) [%]	% Inhibition, nitric oxide ([1]; 120 µM) [%]	% Inhibition, nitric oxide ([1]; 160 µM) [%]	% Inhibition, nitric oxide ([1]; 200 µM) [%]	% Inhibition, nitric oxide ([1]; 240 µM) [%]	Inhibition% (Staphylococcus Aureus) [%]	Diameter of clear zone inhibition (Staphylococcus Aureus) [mm]	Concentration, aqueous ions [2] [µM]	Net pH [2]	Concentration, aqueous layer [2] [µM]	Concentration, organic layer [2] [µM]	Inhibition% [3] [%]	Diameter of clear zone inhibition [3] [mm]	% Inhibition, hydroxyl radical ([4]; 40 µM) [%]	% Inhibition, hydroxyl radical ([4]; 80 µM) [%]	% Inhibition, hydroxyl radical ([4]; 120 µM) [%]	% Inhibition, hydroxyl radical ([4]; 160 µM) [%]	% Inhibition, hydroxyl radical ([4]; 200 µM) [%]	% Inhibition, hydroxyl radical ([4]; 240 µM) [%]	also measured
[Mn+2].[O-]c1ccccc1N=Cc1ccc(N2CCOCC2)cc1.[O-]c1ccccc1N=Cc1ccc(N2CCOCC2)cc1.c1ccc(-c2ccccn2)nc1 [(1)]	13.14	22.48	28.54	36.64	44.75	56.69	40	10	238	3.48	1600	23500	40	10	10.08	17.89	28.56	34.04	44.92	56.03	IC50 (HepG2): 36 ± 1.8 µM; pKa [2]: 3.42; Log D ([2]; n-octanol/deionised water): 1.107; Log P [2, 5]: 1.166; IC50 (A549): 37.6 ± 1.9 µM; IC50 (NHDF): 76.6 ± 3.8 µM
[Co+2].[O-]c1ccccc1N=Cc1ccc(N2CCOCC2)cc1.[O-]c1ccccc1N=Cc1ccc(N2CCOCC2)cc1.c1ccc(-c2ccccn2)nc1 [(2)]	14.72	23.62	31.21	39.12	46.06	61.34	45	11	56.6	4.38	12000	400	40	10	08.02	15.24	26.23	36.41	46.17	56.85	IC50 (HepG2): 35.9 ± 1.8 µM; pKa [2]: 4.36; Log D ([2]; n-octanol/deionised water): −1.497; Log P [2, 5]: −1.477; IC50 (A549): 34.2 ± 1.7 µM; IC50 (NHDF): 74 ± 3.7 µM; IC50 [4]: 200 µM
[Ni+2].[O-]c1ccccc1N=Cc1ccc(N2CCOCC2)cc1.[O-]c1ccccc1N=Cc1ccc(N2CCOCC2)cc1.c1ccc(-c2ccccn2)nc1 [(3)]	14.72	23.28	29.66	38.63	45.60	59.65	40	10	35.7	4.76	1250	18500	45	11	07.67	15.86	26.12	35.43	45.56	55.75	IC50 (HepG2): 33.6 ± 1.7 µM; pKa [2]: 4.75; Log D ([2]; n-octanol/deionised water): 1.158; Log P [2, 5]: 1.170; IC50 (A549): 33.5 ± 1.7 µM; IC50 (NHDF): 73.8 ± 3.7 µM
Oc1ccccc1N=Cc1ccc(N2CCOCC2)cc1 [(HL), 2-(4-morpholinobenzylideneamino)phenol]	11.42	18.26	24.28	33.21	40.53	51.62	33	09	789	3.35	900	11000	45	11	07.26	14.43	25.52	33.86	40.73	50.68	IC50 (HepG2; Homo sapiens): 108 ± 5.4 µM; logD at 24 h ([2]; n-octanol/deionised water, pH 7.11): 0.814; pKa ([2]; n-octanol/deionized water (shake flask), pH 3.35, read-out: pKa): 3.08; logP at 24 h ([2]; pH 7.11, n-octanol/deionised water, shake flask): 1.09; IC50 (A549; Homo sapiens): 126 ± 6.3 µM; IC50 (NHDF; Homo sapiens): 209 ± 10.4 µM
